The text below walks through data of patent US6548494B1, “Tricyclic inhibitors of poly(ADP-ribose) polymerases” (Agouron Pharmaceuticals, Inc., priority 1999, dated 2003).

One series concerns the target purified PARP protein (Homo sapiens, UniProt P09874). The series can be described thus: PARP enzyme inhibition assay. Format: biochemical. The note with it: 20 nM purified PARP (5 nM for tight-binding inhibitors), 500 μM NAD+, 25° C.; several values in one cell = repeat determinations; read-out: Inhibition Constant Ki.
Another series concerns A549 cells. The series can be described thus: Cytotoxicity potentiation assay. It counts as cell-based. Particulars: test compound 0.4 μM, ratio of IC50 of topotecan alone to IC50 of topotecan with test compound. The procedure: A549 cells (ATCC, Rockville, Md.) were seeded into 96-well cell culture plates (Falcon brand, Fisher Scientific, Pittsburgh, Pa.) 16 to 24 hours before experimental manipulation. Cells were then treated with a test compound (or a combination of test compounds where indicated) each at a concentration of 0.4 μM for either 3 days or 5 days. At the end of treatments, relative cell number was determined either by MTT assay or SRB assay. For the MTT assay, 0.2 μg/μl of MTT (3-(4,5-dimethylthiazol-2-yl)-2,5-diphenyltetrazolium bromide) (Sigma Chemical Co., St. Louis, Mo.) was added to each well of a plate, and the plate was incubated in a cell-culture incubator for 4 hours. Metabolized MTT in each well was solubilized in 150 μl of DMSO (Sigma Chemical Co.) with shaking and quantified with a Wallac 1420 Victor plate reader (EG&G Wallac, Gaithersburg, Md.) at 540 nm. For the SRB assay, cells were fixed with 10% trichloroacetic acid (Sigma Chemical Co) for an hour at 4° C. After extensively washing, fixed cells were stained for 30 minutes with 0.4% sulforhodamine B (SRB, Sigma Chemical Co.) in 1% acetic acid (Sigma Chemical Co). Unbound SRB was washed away with 1% acetic acid. Then the cultures were air-dried, and dye was solubilized with 10 mM unbuffered Tris base (Sigma Chemical Co) with shaking. The bound dye was measured photometrically with the Wallac Victor plate reader at 515 nm. The ratio of the OD (optical density) value of a compound-treated culture to the OD value of a mock-treated culture, expressed in percentage, was used to quantify the cytotoxicity of a compound. […] To quantify the potentiation of the cytotoxicity of topotecan or temozolomide by test compounds, a dimensionless parameter PF50 is used and is defined as the ratio of the IC50 of topotecan or temozolomide alone to the IC50 of topotecan or temozolomide in combination with a test compound. For the compounds of the invention, PF50 values were determined by testing with topotecan.

“And” between values parts separate entries of the source, which are not always exact repeats. Identical values can stand only once.

Sequence of purified PARP protein (P09874 whole entry): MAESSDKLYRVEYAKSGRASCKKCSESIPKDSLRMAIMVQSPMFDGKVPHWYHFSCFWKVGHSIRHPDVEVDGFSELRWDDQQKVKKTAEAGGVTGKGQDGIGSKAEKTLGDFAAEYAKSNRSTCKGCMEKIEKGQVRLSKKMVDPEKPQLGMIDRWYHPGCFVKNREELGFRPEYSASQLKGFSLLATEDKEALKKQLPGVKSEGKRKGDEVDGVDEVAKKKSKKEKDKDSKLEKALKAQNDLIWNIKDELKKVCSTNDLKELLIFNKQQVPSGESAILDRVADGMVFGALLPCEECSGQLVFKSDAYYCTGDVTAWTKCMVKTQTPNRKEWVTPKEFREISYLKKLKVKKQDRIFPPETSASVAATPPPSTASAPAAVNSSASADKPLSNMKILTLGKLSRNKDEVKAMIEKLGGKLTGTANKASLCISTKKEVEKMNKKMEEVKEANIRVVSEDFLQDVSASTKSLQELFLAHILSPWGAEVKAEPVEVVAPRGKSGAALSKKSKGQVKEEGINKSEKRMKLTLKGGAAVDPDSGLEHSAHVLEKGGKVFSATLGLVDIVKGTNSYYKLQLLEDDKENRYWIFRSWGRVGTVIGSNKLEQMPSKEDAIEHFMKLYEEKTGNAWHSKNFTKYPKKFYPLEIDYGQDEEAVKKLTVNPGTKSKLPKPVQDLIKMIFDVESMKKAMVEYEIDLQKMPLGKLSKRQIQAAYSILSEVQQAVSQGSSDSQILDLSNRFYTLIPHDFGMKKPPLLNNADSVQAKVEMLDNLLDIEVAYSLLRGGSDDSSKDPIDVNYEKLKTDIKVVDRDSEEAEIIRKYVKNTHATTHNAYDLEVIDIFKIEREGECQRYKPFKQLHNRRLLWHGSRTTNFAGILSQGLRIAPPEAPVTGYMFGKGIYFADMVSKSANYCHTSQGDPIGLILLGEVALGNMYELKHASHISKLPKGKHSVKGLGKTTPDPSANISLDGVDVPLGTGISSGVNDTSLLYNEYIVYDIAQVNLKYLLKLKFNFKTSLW

One may read the melting point as the temperature, or range, at which the solid turns liquid. The Ki is the equilibrium dissociation constant of an inhibitor or competing ligand from its target. For `CN(C)Cc1cccc(-c2cc3cccc4c3n2CCNC4=O)c1` [Example 86, 6-(3-Dimethylaminomethyl-phenyl)-3,4-dihydro-2H-[1,4]diazepino[6,7,1-hi]indol-1-one], the melting point was 98 to 100 °C. In addition, the Ki on purified PARP protein came to 9.1 nM. Moreover, in the series with A549 cells, the “Cytotoxicity Potentiation PF50” value turned out to be 1.6.
In the case of `COCCNCc1ccc(-c2nc3cccc4c3n2CCNC4=O)cc1` [Example 77, 1-(4-[(2-Methoxyethylamino)methyl]-phenyl)-8,9-dihydro-7H-2,7,9a-triaza-benzo[cd]azulen-6-one], the melting point was 154 to 157 °C. Besides, at purified PARP protein, the Ki worked out at 6.9 nM. The “Cytotoxicity Potentiation PF50” value in the series on A549 cells was found to be 1.7.
Consider `O=C1NCCn2c(-c3cccc(C(F)(F)F)c3)nc3cccc1c32` [Example 10, 1-(3-Trifluoromethyl-phenyl)-8,9-dihydro-7H-2,7,9a-triaza-benzo[cd]azulen-6-one], for which the melting point lay within 250 to 252 °C. The Ki on purified PARP protein came out at 11.2 nM. Also, the “Cytotoxicity Potentiation PF50” value in the series on A549 cells worked out at 1.7.
With `O=C1NCCn2c(-c3ccc(CCN4CCCC4)cc3)nc3cccc1c32` [Example 128, 1-[4-(2-Pyrrolidin-1-yl-ethyl)-phenyl]-8,9-dihydro-7H-2,7,9a-triaza-benzo[cd]azulen-6-one], the melting point was > 201 °C (dec.). Besides, on purified PARP protein, the Ki was 4 nM and 5.4 nM. For the same compound, the “Cytotoxicity Potentiation PF50” value in the series with A549 cells turned out to be 1.8.
Take `O=C1NCCn2c(-c3ccc(-n4ccnc4)cc3)nc3cccc1c32` [Example 119, 1-(4-Imidazol-1-yl-phenyl)-8,9-dihydro-7H-2,7,9a-triaza-benzo[cd]azulen-6-one]: the melting point was > 300 °C (dec.). Moreover, the Ki at purified PARP protein is 3.2 nM and 4.2 nM. Moreover, the “Cytotoxicity Potentiation PF50” value in the series with A549 cells was 2.2.
On to `CN1CCC(c2ccc(-c3nc4cccc5c4n3CCNC5=O)cc2)CC1` [Example 141, 1-[4-(1-Methyl-piperidin-4-yl)-phenyl]-8,9-dihydro-7H-2,7,9a-triaza-benzo[cd]azulen-6-one], for which the melting point was > 240 °C (dec.). For the same compound, the Ki at purified PARP protein was determined as 5.5 nM. The “Cytotoxicity Potentiation PF50” value in the series with A549 cells is on record as 2.3.
On to `CNCc1ccc(-c2nc3cccc4c3n2CCNC4=O)cc1` [Example 75, 1-(4-Methylaminomethyl-phenyl)-8,9-dihydro-7H-2,7,9a-triaza-benzo[cd]azulen-6-one], for which the melting point is 169 to 172 °C. Moreover, the Ki at purified PARP protein amounted to 1.9 nM. Besides, in the series on A549 cells, the “Cytotoxicity Potentiation PF50” value turned out to be 1.8.
Turning to `O=C1NCCn2c(-c3ccc(Cl)cc3)nc3cccc1c32` [Example 14, 1-(4-Chloro-phenyl)-8,9-dihydro-7H-2,7,9a-triaza-benzo[cd]azulen-6-one], the melting point fell in the range of 272 to 274 °C. Besides, the Ki at purified PARP protein was 5.7 nM and 7.6 nM. Further, the “Cytotoxicity Potentiation PF50” value with A549 cells was 1.8.
`O=C1NCCn2c(-c3ccccn3)nc3cccc1c32` [Example 12, 1-Pyridin-2-yl-8,9-dihydro-7H-2,7,9a-triaza-benzo[cd]azulen-6-one] had a melting point of 249 to 250 °C. Further, the Ki at purified PARP protein was 21 nM and 17 nM. Moreover, the “Cytotoxicity Potentiation PF50” value in the series with A549 cells stood at 1.3.
`O=C1NCCn2c(-c3ccc(Cl)cc3)cc3cccc1c32` [Example 34, 6-(4-Chlorophenyl)-3,4-dihydro-2H-[1,4]diazepino[6,7,1-hi]indol-1-one]: the melting point fell in the range of 178 to 180 °C. Also, at purified PARP protein, the inhibition constant (Ki) was 11 nM. The “Cytotoxicity Potentiation PF50” value with A549 cells was 1.8.
Taken in the same sequence, the figures for `O=C1NCCn2c(-c3ccc(CNC4CC4)cc3)nc3cccc1c32` [Example 101, 1-(4-Cyclopropylaminomethyl-phenyl)-8,9-dihydro-7H-2,7,9a-triaza-benzo[cd]azulen-6-one] were 84 °C (dec.), 2.3 nM and 2.1.
Turning to `O=C1NCCn2c(-c3ccc(F)c(F)c3)nc3cccc1c32` [Example 4, 1-(3,4-Difluoro-phenyl)-8,9-dihydro-7H-2,7,9a-triaza-benzo[cd]azulen-6-one], the melting point fell in the range of 245 to 247 °C. Moreover, on purified PARP protein, the Ki is 6.5 nM. For the same compound, in the series on A549 cells, the “Cytotoxicity Potentiation PF50” value amounted to 1.5.
As to `O=C1NCCn2c(-c3ccc(C4CCCNC4)cc3)nc3cccc1c32` (centres unmarked) [Example 142, 1-(4-Piperidin-3-yl-phenyl)-8,9-dihydro-7H-2,7,9a-triaza-benzo[cd]azulen-6-one], the melting point is > 230 °C (dec.). Also, the Ki on purified PARP protein was determined as 3.8 nM. In addition, the “Cytotoxicity Potentiation PF50” value with A549 cells amounted to 2.2.
As for `O=C1NCCn2c(-c3cccc(Oc4ccncc4)c3)nc3cccc1c32` [Example 17, 1-[3-(Pyridin-4-yloxy)-phenyl]-8,9-dihydro-7H-2,7,9a-triaza-benzo[cd]azulen-6-one], the melting point was in the range of 245 to 247 °C. The Ki at purified PARP protein is 4.8 nM and 5.3 nM. For the same compound, the “Cytotoxicity Potentiation PF50” value in the series with A549 cells is recorded as 1.7.
`CN1CCCCC1c1ccc(-c2nc3cccc4c3n2CCNC4=O)cc1` (centres unmarked) [Example 132, 1-[4-(1-Methyl-piperidin-2-yl)-phenyl]-8,9-dihydro-7H-2,7,9a-triaza-benzo[cd]azulen-6-one]: the melting point was > 180 °C (dec.). In addition, the Ki at purified PARP protein worked out at 6.8 nM. Further, in the series on A549 cells, the “Cytotoxicity Potentiation PF50” value came to 2.4.
Take `O=C1NCCn2c(-c3ccncc3)nc3cccc1c32` [Example 3, 1-Pyridin-4-yl-8,9-dihydro-7H-2,7,9a-triaza-benzo[cd]azulen-6-one]: the melting point is 269 °C (dec.). Further, the Ki on purified PARP protein is 10.9 nM and 12 nM. In addition, the “Cytotoxicity Potentiation PF50” value with A549 cells is 1.4.
As for `CNCc1cccc(-c2nc3cccc4c3n2CCNC4=O)c1` [Example 59, 1-(3-Methylaminomethyl-phenyl)-8,9-dihydro-7H-2,7,9a-triaza-benzo[cd]azulen-6-one], the melting point is 110 °C (dec.). Further, on purified PARP protein, the Ki came to 4.2 nM. In addition, the “Cytotoxicity Potentiation PF50” value in the series with A549 cells is 1.8.
As for `CN(C)Cc1ccc(-c2cc3cc(F)cc4c3n2CCNC4=O)cc1` [Example 170, 6-(4-Dimethylaminomethyl-phenyl)-9-fluoro-3,4-dihydro-2H-[1,4]diazepino[6,7,1-hi]indol-1-one], the melting point fell in the range of 172 to 174 °C. Besides, at purified PARP protein, the Ki turned out to be 3.1 nM. In the series on A549 cells, the “Cytotoxicity Potentiation PF50” value was 1.9.
The matching figures for `CN(C)Cc1cccc(-c2nc3cccc4c3n2CCNC4=O)c1` [Example 32, 1-(3-Dimethylaminomethyl-phenyl)-8,9-dihydro-7H-2,7,9a-triaza-benzo[cd]azulen-6-one]: 192 to 194 °C (dec.), 6.3 nM and 1.8.
The matching figures for `O=C1NCCn2c(-c3ccc(C4CCNCC4)cc3)nc3cccc1c32` [Example 137, 1-(4-Piperidin-4-yl-phenyl)-8,9-dihydro-7H-2,7,9a-triaza-benzo[cd]azulen-6-one]: > 192 °C (dec.), 5.4 nM and 2.2.
The compound `O=C1NCCn2c(-c3ccc(-c4cccnc4)cc3)nc3cccc1c32` [Example 134, 1-(4-Pyridin-3-yl-phenyl)-8,9-dihydro-7H-2,7,9a-triaza-benzo[cd]azulen-6-one] gave a melting point of 284 to 286 °C. Also, the Ki on purified PARP protein amounted to 2.8 nM. For the same compound, the “Cytotoxicity Potentiation PF50” value in the series on A549 cells is on record as 2.5.
As to `S=C1NCCn2c(-c3ccccc3)nc3cccc1c32` [Example 25, 1-Phenyl-8,9-dihydro-7H-2,7,9a-triaza-benzo[cd]azulen-6-thione], the melting point is 224 °C (dec.). Moreover, the “Cytotoxicity Potentiation PF50” value with A549 cells is 1.4.
Take `O=C1NCCn2c(-c3ccc(F)cc3)nc3cccc1c32` [Example 2, 1-(4-Fluoro-phenyl)-8,9-dihydro-7H-2,7,9a-triaza-benzo[cd]azulen-6-one]: the Ki on purified PARP protein was 8 nM and 6 nM. In addition, the “Cytotoxicity Potentiation PF50” value in the series with A549 cells is on record as 1.6.
In the case of `CC(c1ccc(-c2nc3cccc4c3n2CCNC4=O)cc1)N1CCCC1` (centres unmarked) [Example 246, 1-[4-(1-Pyrrolidin-1-yl-ethyl)-phenyl]-8,9-dihydro-7H-2,7,9a-triaza-benzo[cd]azulen-6-one], at purified PARP protein, the Ki is 3.3 nM. The “Cytotoxicity Potentiation PF50” value in the series on A549 cells came out at 2.3.
Take `O=C1NCCn2c(-c3ccc(CN4CC=CC4)cc3)nc3cc(F)cc1c32` [Example 177, 1-[4-(2,5-Dihydro-pyrrol-1-ylmethyl)-phenyl]-4-fluoro-8,9-dihydro-7H-2,7,9a-triaza-benzo[cd]azulen-6-one]: the Ki on purified PARP protein turned out to be 4.1 nM. The “Cytotoxicity Potentiation PF50” value in the series with A549 cells turned out to be 2.5.
